Measured values: ChEMBL document CHEMBL1138260, “The first biologically active synthetic analogues of FK228, the depsipeptide histone deacetylase inhibitor” (J Med Chem, 2007)
Activity calls are given as the source filed them. The calls are words filed in the database; no cut-off is given here.

Experiments:
[1] = system: MCF7; assay: Growth inhibition of MCF7 cells; type: functional, cell-based; conditions: Homo sapiens
[2] = target: Histone deacetylase; assay: Inhibition of HDAC in HeLa nuclear extract in presence of DTT; type: protein assay, Homo sapiens
[3] = target: Histone deacetylase 1 (Homo sapiens, UniProt Q13547)
Description: Inhibition of HDAC1 in presence of DTT

[4] = target: T1, Protein deacetylase HDAC6 (Homo sapiens, UniProt Q9UBN7)
T1 sequence (Q9UBN7 whole entry): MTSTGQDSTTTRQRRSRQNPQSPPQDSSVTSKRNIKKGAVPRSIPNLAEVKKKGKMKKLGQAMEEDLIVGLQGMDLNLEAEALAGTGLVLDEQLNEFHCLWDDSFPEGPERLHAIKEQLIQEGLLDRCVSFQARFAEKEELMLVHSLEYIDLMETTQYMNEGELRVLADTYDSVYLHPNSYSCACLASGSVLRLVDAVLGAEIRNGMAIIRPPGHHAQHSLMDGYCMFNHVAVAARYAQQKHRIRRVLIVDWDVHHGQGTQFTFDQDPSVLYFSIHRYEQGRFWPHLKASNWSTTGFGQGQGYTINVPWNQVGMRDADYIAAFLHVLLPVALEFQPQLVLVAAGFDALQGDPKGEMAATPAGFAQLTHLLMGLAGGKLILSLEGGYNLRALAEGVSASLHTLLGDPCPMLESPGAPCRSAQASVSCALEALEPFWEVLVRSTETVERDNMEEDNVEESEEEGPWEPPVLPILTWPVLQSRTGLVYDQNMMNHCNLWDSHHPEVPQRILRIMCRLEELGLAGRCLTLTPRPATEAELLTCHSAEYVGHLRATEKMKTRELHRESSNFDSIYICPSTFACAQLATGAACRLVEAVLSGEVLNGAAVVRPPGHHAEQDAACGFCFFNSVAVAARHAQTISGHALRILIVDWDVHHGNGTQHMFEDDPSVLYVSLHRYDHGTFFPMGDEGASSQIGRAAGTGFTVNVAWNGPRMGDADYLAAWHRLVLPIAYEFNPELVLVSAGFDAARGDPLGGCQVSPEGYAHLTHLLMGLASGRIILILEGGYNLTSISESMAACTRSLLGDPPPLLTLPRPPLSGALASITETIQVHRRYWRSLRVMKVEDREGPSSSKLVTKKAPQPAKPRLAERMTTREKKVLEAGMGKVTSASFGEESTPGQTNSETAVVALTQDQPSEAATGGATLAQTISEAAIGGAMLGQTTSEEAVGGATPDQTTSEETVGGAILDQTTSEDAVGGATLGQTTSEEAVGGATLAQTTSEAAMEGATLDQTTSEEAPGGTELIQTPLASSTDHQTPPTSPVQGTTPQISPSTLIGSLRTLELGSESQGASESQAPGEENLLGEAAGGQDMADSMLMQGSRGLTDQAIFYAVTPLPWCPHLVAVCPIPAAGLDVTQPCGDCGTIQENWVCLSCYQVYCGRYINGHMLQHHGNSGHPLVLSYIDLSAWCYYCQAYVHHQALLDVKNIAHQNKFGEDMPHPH
Description: Inhibition of HDAC6 in presence of DTT

[5] = system: MCF7; assay: Induction of p21cip1/waf1 promoter activity in MCF7 cells after 24 hrs; type: functional, cell-based; conditions: Homo sapiens

Histone deacetylase 1, sequence (Q13547 whole entry): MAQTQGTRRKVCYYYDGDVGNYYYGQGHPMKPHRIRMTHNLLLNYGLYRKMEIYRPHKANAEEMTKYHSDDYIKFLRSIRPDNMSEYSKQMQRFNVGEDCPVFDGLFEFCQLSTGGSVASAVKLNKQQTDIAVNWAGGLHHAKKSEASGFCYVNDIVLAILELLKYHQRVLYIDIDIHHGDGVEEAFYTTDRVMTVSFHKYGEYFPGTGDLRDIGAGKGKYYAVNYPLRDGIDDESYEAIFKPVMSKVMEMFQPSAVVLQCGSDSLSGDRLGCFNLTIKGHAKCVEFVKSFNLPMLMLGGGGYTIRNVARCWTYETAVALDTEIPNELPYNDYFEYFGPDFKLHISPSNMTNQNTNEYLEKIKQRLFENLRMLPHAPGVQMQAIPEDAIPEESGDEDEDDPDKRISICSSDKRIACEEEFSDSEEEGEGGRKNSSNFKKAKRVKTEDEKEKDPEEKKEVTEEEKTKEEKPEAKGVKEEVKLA

| SMILES | IC50 [1] | IC50 [2] | IC50 [3] | IC50 [4] | Activity [5] |
| --- | --- | --- | --- | --- | --- |
| CC(=O)SCC/C=C/[C@@H]1CC(=O)N[C@H](C)C(=O)N[C@H](C)C(=O)N[C@H](C(C)C)C(=O)NCC(=O)O1 | 55 nM | 242 nM | > 100 nM | > 10000 nM |  |
| CC(C)[C@H]1NC(=O)[C@@H](C)NC(=O)[C@@H](C)NC(=O)C[C@@H](/C=C/CCS)OC(=O)CNC1=O | > 1000 nM | 7 nM | 17.5 nM | 4920 nM |  |
| COC(=O)CNC(=O)[C@H](NC(=O)[C@H]1CSSCC/C=C/[C@@H](O)CC(=O)N[C@H](C)C(=O)N1)C(C)C | > 1000 nM | > 3200 nM |  |  |  |

Stronger by IC50 [1], values ahead:

| IC50 [1] | IC50 [2] | IC50 [3] | IC50 [4] | SMILES | Activity [5] |
| --- | --- | --- | --- | --- | --- |
| 5.1 nM | 7.2 nM | 1.6 nM | 897 nM | CC(C)[C@H]1NC(=O)C[C@H]2/C=C/CCSSC[C@@H](NC1=O)C(=O)N[C@H](C(C)C)C(=O)NCC(=O)O2 |  |
| 37 nM | 15 nM | 1.6 nM | 881 nM | CC(C)[C@H]1NC(=O)[C@H]2CSSCC/C=C/[C@H](CC(=O)N[C@H](C)C(=O)N2)OC(=O)CNC1=O | Active |
